Data published in PMC12584665, “In vitro and in vivo efficacy of vancomycin against Elizabethkingia species and the impact of increased vancomycin MICs” (Microbiology Spectrum, 2025).

Test system: Elizabethkingia anophelis
Experiment: Agar dilution (AD) MIC
Assay type: cell-based
Description: Eighteen E. anophelis clinical isolates from the nationwide surveillance program (Taiwan Surveillance of Antimicrobial Resistance) were well characterized in our previous study ([7]) and were selected for susceptibility testing and minimum bactericidal concentration (MBC) assays. Among them, five isolates with different clonality (underlined strains in Fig. S1) were selected for the time-kill assays and in vivo experiments.
Broth microdilution, disc diffusion, Etest, and agar dilution assays were conducted following CLSI guidelines to determine vancomycin MICs ([8]). […] Criteria for Staphylococcus spp. were not adopted due to the lack of a zone diameter breakpoint. MBCs were determined following CLSI guidelines ([8]).

Measured: MIC

CN[C@H](CC(C)C)C(=O)N[C@H]1C(=O)N[C@@H](CC(N)=O)C(=O)N[C@H]2C(=O)N[C@H]3C(=O)N[C@H](C(=O)N[C@H](C(=O)O)c4cc(O)cc(O)c4-c4cc3ccc4O)[C@H](O)c3ccc(c(Cl)c3)Oc3cc2cc(c3O[C@@H]2O[C@H](CO)[C@@H](O)[C@H](O)[C@H]2O[C@H]2C[C@](C)(N)[C@H](O)[C@H](C)O2)Oc2ccc(cc2Cl)[C@H]1O [Vancomycin]
16 µg/mL: E. anophelis clinical isolate 2008N05-106 | E. anophelis clinical isolate 2008S01-229 | E. anophelis clinical isolate 2014C06-157 | E. anophelis clinical isolate 2016N17-576 | E. anophelis clinical isolate 2018C04-213 | E. anophelis clinical isolate 2018C04-224 | E. anophelis clinical isolate 2018C07-210 | E. anophelis clinical isolate 2018C07-234 | E. anophelis clinical isolate 2018C08-127 | E. anophelis clinical isolate 2018E03-151 | E. anophelis clinical isolate 2018E04-135 | E. anophelis clinical isolate 2018N16-057 | E. anophelis clinical isolate 2018N17-036 | E. anophelis clinical isolate 2018N17-073 | E. anophelis clinical isolate 2018N17-153 | E. anophelis clinical isolate 2018N21-226 | E. anophelis clinical isolate 2018S09-023
32 µg/mL: E. anophelis clinical isolate 2018S11-172
